According to patent publication US6387395B1, “N-[1, (1-1) -dialkyloxy] - and N- [1, (1-1) -dialkenyloxy]- alk-1-yl-N,N,N-tetrasubstituted ammonium lipids and uses therefor” (priority 1985, dated 2002):
Each block holds one molecule with its values, some of them ahead of it.

Tests used:
Vero cells = test: Protein synthesis ([3H]leucine) in cells treated with DOTMA liposomes / 2-5A analog; format: cell-based; conditions: 6 hours incubation, alone (no DOTMA); 2-5A analog at 10^−6 M
Excerpt: Oligoadenylates of the general structure ppp(A2′p)nA, n≧2, are referred to as “2-5A”. 2-5A molecules are well known, to those skilled in the art, to bind to an intracellular endonuclease resulting in activation of the endonuclease with subsequent cleavage of ribosomal and messenger RNA, resulting in inhibition of protein synthesis. […] A calcium phosphate coprecipitation technique can be employed to artificially introduce 2-5A into cells, which can be monitored by inhibition of protein synthesis. […] The solutions were then removed by aspiration, the cells were labelled for 90 minutes with [^3H] leucine (1 μCi/0.5 ml/well), and the trichloroacetic acid (TCA)-precipitable radioactivity was determined after incubating 30 minutes with cold 10% TCA, washing, harvesting the cells with 0.1 M NaOH, neutralizing with HCl, and quantitating the radioactivity by liquid scintillation counting. […] However, the calcium phosphate treatment was very toxic to the cells, as determined from their morphology as well as approximately up to 40% reduction in protein synthesis of the cells receiving only the calcium phosphate treatment but no 2-5A.
Cells were incubated and protein synthesis was determined as described above except that the 60 mM CaCl2 was not included. […] In another test, cells were incubated with samples for 2, 6, or 18 hours and protein synthesis was determined as described above.

[1] = Solubility of drug in phosphate buffered saline; format: physicochemical
Protocol: For example, 1-[4-(4-chlorophenyl)-2-(2,6-dichlorophenylthio)-n-butyl] imidazole nitrate without the presence of any of the compounds of this invention is insoluble in aqueous buffer (phosphate buffered saline, pH 7.4).
A 0.3% soluble preparation of the above drug was prepared using the following method:
18 mg of 1-[4-(4-chlorophenyl)-2-(2,6-dichlorophenylthio)-n-butyl] imidazole nitrate and 482 mg of N-(2,3-di-(9-(Z)-octadecenyloxy)-prop-1-yl-N,N,N-trimethylammonium chloride were dissolved in methylene dichloride. The methylene dichloride was evaporated under a stream of nitrogen and the dried film placed under vacuum overnight. The dried film was suspended in 6 ml phosphate buffered saline, pH 7.4, and sonicated to clarity.

[2] = DNA-lipid complex formation on sucrose density gradient; format: physicochemical; conditions: lipid mixed with DNA at a ratio of 5:1 (wt:wt), gentle mixing
Excerpt: DNA interacts spontaneously with solutions of DOTMA to form lipid-DNA complexes. This complex formation is due presumably to ionic interactions between the positively charged group on the DOTMA molecule and the negatively charged phosphate groups on the DNA. Complex formation was examined using a sucrose density gradient (not shown). In the absence of lipid, DNA migrated to the bottom of the gradient while lipid, in the absence of DNA, floated at the top. When lipid was mixed with DNA at a ratio of 5:1 (wt:wt) all the DNA migrated with the lipid. The association of 100% of the DNA with DOTMA after gentle mixing contrasts with conventional liposome encapsulation procedures which usually entrap less than 10% of the DNA, require an additional purification step to remove unencapsulated DNA or involve potentially destructive conditions such as vigorous agitation or sonication.

mouse L-cells [3] = test: DNA transfection of mouse L-cells; format: cell-based
Protocol: (§1) (a) Formation of the lipid-DNA complexBoth DNA and lipid are diluted to 1.5 ml each with HBS (150 mM NaCl, 20 mM Hepes pH 7.4) and then mixed. The DNA lipid complexes form immediately. A typical transfection would use 1 to 10 μg DNA and 100 μg of total lipid (DOTMA:PE, 1:1).
(b) Treatment of cells—Just confluent 100 mm tissue culture plates of cells are washed 2× with 5 ml of HBS and 3 ml of the DNA-lipid solution is added. […] After incubation for 16 hours at 37° the medium is replaced with 10 ml fresh medium and cells are harvested by scraping 2-3 days later. Cell extracts were prepared and CAT assays performed as previously described. For stable transfections 50% confluent cells were treated as above except that 2 days after transfection cells were passaged and grown in selective medium for either neomycin resistance (0.4 mg/ml G418) or E. coli XGPRT expression.

JZ.1 cells = test: Transient transfection with pSV2CAT, CAT activity; format: cell-based, rat
Protocol: as §1
(§2) (b) Treatment of cells—Just confluent 100 mm tissue culture plates of cells are washed 2× with 5 ml of HBS and 3 ml of the DNA-lipid solution is added. The cells are incubated for 3-5 hours at 37° and then 10 ml of DMEM+10% fcs is added. After incubation for 16 hours at 37° the medium is replaced with 10 ml fresh medium and cells are harvested by scraping 2-3 days later. Cell extracts were prepared and CAT assays performed as previously described. For stable transfections 50% confluent cells were treated as above except that 2 days after transfection cells were passaged and grown in selective medium for either neomycin resistance (0.4 mg/ml G418) or E. coli XGPRT expression.
(§3) Cells were transfected with calcium phosphate precipitated DNA as described with the addition of a glycerol shock. Similarly cells were transfected with the DEAE-dextran method as described.

CV-1 cells = test: Transient transfection with pSV2CAT, CAT activity; format: cell-based, monkey; conditions: CV-1 and COS 7 cells
Protocol: as §1, §2, §3
Cells transfected with the plasmid pSV2CAT express CAT enzyme activity that can be measured in cell extracts 2 days after transfection. […]

mouse L-cells [4] = test: Cytotoxicity of dsRNA introduced into cells (trypan blue viability); format: cell-based
Excerpt: Interferon treatment of various cells including both mouse and human cells results in induction of an enzyme, 2-5A synthetase, which when activated by double stranded RNA produces 2-5A. 2-5A is a polymer of ATP that contains unique 2′-5′ linkages rather than the standard 3′-5′ linkages. 2-5A is effectively a communication molecule which activates a latent 2′-5′ endonuclease resulting in degradation of cellular mRNA. […] In the presence of double stranded RNA, 2-5A is produced and can be produced in sufficient concentrations to degrade the majority of the cellular RNA, including ribosomal RNA, resulting in cell death. In this respect, this system can be used as cytotoxic assay to analyze the capacity of a compound to introduce double stranded RNA into the cytoplasm of a cell. The double stranded RNA commonly used is poly IC, a commercially available compound which is used experimentally and classically to induce interferon by methods well known to those familiar in the art. Poly IC will not penetrate cells and cause cytotoxic effects alone, but requires a vehicle to help carry it across the cell membrane. The most common agent used for this purpose is DEAE dextran in experimental cell culture systems and a complex of carboxymethyl cellulose and polylysine in clinical use. […]

Vero or L929 cells = test: Inhibition of protein synthesis ([3H]leucine) by 2-5A, calcium phosphate coprecipitation; format: cell-based
Excerpt: Oligoadenylates of the general structure ppp(A2′p)nA, n≧2, are referred to as “2-5A”. 2-5A molecules are well known, to those skilled in the art, to bind to an intracellular endonuclease resulting in activation of the endonuclease with subsequent cleavage of ribosomal and messenger RNA, resulting in inhibition of protein synthesis. […] A calcium phosphate coprecipitation technique can be employed to artificially introduce 2-5A into cells, which can be monitored by inhibition of protein synthesis. Thus 10^−5 to 10^−9 M 2-5A was added to a solution of 120 mM CaCl2, which was then added dropwise into bubbled Hepes buffered saline, pH 7.05 (8.0 g NaCl, 0.37 g KCl, 0.125 g Na2HPO4″2H2O, 1.0 g glucose, and 5.0 g Hepes per liter). A final sample volume of 0.5 ml was added to quadruplicate wells of Costar 24 well plates containing confluent Vero or L929 cells. After 45 minutes at room temperature, an additional 0.5 ml of media was added to each well and incubated an additional 90 minutes at 37° C. The solutions were then removed by aspiration, the cells were labelled for 90 minutes with [^3H] leucine (1 μCi/0.5 ml/well), and the trichloroacetic acid (TCA)-precipitable radioactivity was determined after incubating 30 minutes with cold 10% TCA, washing, harvesting the cells with 0.1 M NaOH, neutralizing with HCl, and quantitating the radioactivity by liquid scintillation counting. […] 50%-maximal inhibition occurred at approximately 10^−9 M 2-5A. However, the calcium phosphate treatment was very toxic to the cells, as determined from their morphology as well as approximately up to 40% reduction in protein synthesis of the cells receiving only the calcium phosphate treatment but no 2-5A.

MSN610.2 cells = test: Stable transfection frequency (drug resistant colonies); format: cell-based, rat; conditions: MSN610.2, pSV2neo 1 μg with 10 μg carrier DNA
Protocol: (§4) (b) Treatment of cells—Just confluent 100 mm tissue culture plates of cells are washed 2× with 5 ml of HBS and 3 ml of the DNA-lipid solution is added. The cells are incubated for 3-5 hours at 37° and then 10 ml of DMEM+10% fcs is added. After incubation for 16 hours at 37° the medium is replaced with 10 ml fresh medium and cells are harvested by scraping 2-3 days later. Cell extracts were prepared and CAT assays performed as previously described.
as §3

TA1 cells = test: as above; format: cell-based, murine
Protocol: as §4, §3

L-TK cells = test: as above; format: cell-based, murine; conditions: pSV2neo 1 μg with 10 μg carrier DNA
Protocol: as §4, §3

Ψ2 cells = test: as above; format: cell-based, murine
Protocol: as §4, §3

Molecule: 5′-triphosphophoryladenylyl-(2′→5′)adenylyl-(2′→5′)adenylyl-(2′→6′)(3′-aza-N-hexyl-1′,2′,3′,4′-tetradeo xyhexopyranos-1′-yl)adenine [2-5A analog]
% of protein synthesis of untreated cells (Vero cells): 82±14%

Molecule: Clc1ccc(CCC(Cn2ccnc2)Sc2c(Cl)cccc2Cl)cc1.O=[N+]([O-])O (stereo not shown) [1-[4-(4-chlorophenyl)-2-(2,6-dichlorophenylthio)-n-butyl] imidazole nitrate]
soluble preparation of drug ([1]; 18 mg drug with 482 mg DOTMA in 6 ml phosphate buffered saline pH 7.4, sonicated to clarity): 0.3%
solubility in aqueous buffer ([1]; phosphate buffered saline, pH 7.4, without compounds of the invention): insoluble

DNA associated with lipid [2]: 100%
Molecule: CCCCCCCC/C=C\CCCCCCCCOCC(C[N+](C)(C)C)OCCCCCCCC/C=C\CCCCCCCC.[Cl-] (stereo not shown) [DOTMA, N-(2,3-di(9-(Z)-octadecenyloxy))-prop-1-yl-N,N,N-trimethylammonium chloride]
CAT activity (% of control) (mouse L-cells [3]; serum present from the outset): less than 5%
fold enhancement over the DEAE-dextran procedure (JZ.1 cells): ≥ 80 fold
fold increase in CAT activity relative to transient transfection with DEAE-dextran (CV-1 cells): 6-11 fold

Molecule: CCCCCCCCCCCCCCCCCC[N+](C)(C)CCCCCCCCCCCCCCCCCC.[Br-] [dioctadecyl dimethyl ammonium bromide]
efficacy as mediators of DNA transfection (mouse L-cells [3]): little efficacy

Molecule: CCCCCCCCCCCCCCCCCCN [stearylamine]
efficacy as mediators of DNA transfection (mouse L-cells [3]): little efficacy

Molecule: Poly IC
Cell Survival (mouse L-cells [4]; 1 million cells, 24 hrs treatment, trypan blue): 100%
frequency of surviving cells (mouse L-cells [4]; poly IC introduced by the DOTMA lipid): 1×10^−6

Molecule: calcium phosphate
reduction in protein synthesis (Vero or L929 cells; calcium phosphate treatment only, no 2-5A): up to 40%
Frequency × 10^5 (MSN610.2 cells): 1.3
% of protein synthesis of untreated cells (Vero cells): 64±3%
Frequency × 10^5 (TA1 cells; TA1, pMSGC5a 7 μg): 1.3
Frequency × 10^5 (TA1 cells; TA1, pSV2neo 1 μg with 10 μg carrier DNA): 2
Frequency × 10^5 (TA1 cells; TA1, pZIPSVX 7 μg): 0.7
Frequency × 10^5 (L-TK cells): 3
Frequency × 10^5 (Ψ2 cells; Ψ2, pZIPC5a 7 μg): 1.8
Frequency × 10^5 (Ψ2 cells; Ψ2, pZIPSVX 7 μg): 0.6

Molecule: ppp(A2′p)2A
IC50 (Vero or L929 cells; after the calcium-phosphate precipitation technique, read-out: 50%-maximal inhibition of protein synthesis): ~1 nM
inhibition of protein synthesis (Vero or L929 cells; all concentrations, without calcium phosphate coprecipitation): no inhibition of protein synthesis
